Measured values taken from PubChem BioAssay AID179 (DTP/NCI, 2004).
Calls of active or inactive are those of the source.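 The calls were made as follows: active = compounds giving half or more protection of infected cells from virus-caused growth loss, again on retest; inactive = the rest.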

System: CEM cells HIV-1 protection, formazan growth assay
Assay: NCI AIDS Antiviral Assay
Details: for IC50: measured here: growth of uninfected CEM cells
Method in brief: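 CEM (human) cells, HIV-1 infected vs uninfected, 5-point dosing, formazan growth read-out. Retest threshold 50% protection.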

| SMILES | EC50 | IC50 | outcome |
| --- | --- | --- | --- |
| COc1ccc2c3c1O[C@]1(C)C34CCN(C)C(C2)C42C=C[C@@]1(OC)c1c(O)ccc(O)c12 | > 60.3 µM | > 60.3 µM | – |
| COc1ccc(/C(C)=C2\CCCN(Cc3ccccc3)C2)cc1 | > 200 µM | 30.9 µM | – |
| COc1cc(/C=C/C(=O)OC[C@]23O[C@H]2[C@@H](OC2OC(C)C(O)C(O)C2O)C2C=CO[C@@H](OC4OC(CO)C(O)C(O)C4O)C23)ccc1O (stereo partly specified) | > 200 µM | > 200 µM | – |
| COc1ccccc1NC(=S)NN=C(C)c1cccc(C(C)=NNC(=S)Nc2ccccc2OC)n1 | > 200 µM | 34.7 µM | – |
| CC1=C(C(=O)Nc2ccccc2)C(c2ccc(N(C)C)cc2)C(C(=O)Nc2ccccc2)=C(C)N1 | – | – | inactive |
| Cc1cn(C2CC3C(COC(C)(C)N3O)O2)c(=O)[nH]c1=O (stereo unspecified) | 7.76 µM | > 200 µM | – |
| Cc1cccc(C)c1NC(=O)CCc1nnc2s/c(=C\c3ccc(Cl)cc3)c(=O)n12 | > 1.7 µM | > 1.7 µM | – |
| CCCCCCCCCCCCCCCCOC[C@H](COC(c1ccccc1)(c1ccccc1)c1ccccc1)O[P+](=S)OC (stereo partly specified) | > 100 µM | 57.5 µM | – |
| CCO[C@@]12CCC3CC4CC[C@@](OCC)(O1)C4C32 (stereo partly specified) | > 200 µM | > 200 µM | – |
| OCC(CO)c1cnnc2ccccc12 | > 525 µM | > 525 µM | – |
| Cc1cc(Cl)ccc1NC(=O)C(=O)Cc1nc2ccccc2o1 | > 11.5 µM | > 11.5 µM | – |
| CCc1c(Cc2cc(C)cc(C)c2)n(COCCO[Si](C)(C)C(C)(C)C)c(=O)[nH]c1=O | 0.646 µM | 11.5 µM | – |
| CCCC/C=C(/C1OC(=O)N2CCC[C@H]2C1(C)C)[Si](C)(C)C (stereo partly specified) | > 6.17 µM | > 6.17 µM | – |
| O[C@H]1[C@H]2c3cc4c(cc3CN3CCC(C[C@@H]1O)[C@H]23)OCO4 (stereo partly specified) | – | – | inactive |
| COC(=O)C(Cc1c(-c2[nH]c3ccccc3c2CC(NC(C)=O)C(=O)OC)[nH]c2ccccc12)NC(C)=O (stereo unspecified) | > 200 µM | > 200 µM | – |
| Cc1ccccc1C=C1C(=O)NC(=O)NC1=O | > 407 µM | > 407 µM | – |
| CC1C2CC(C(S(=O)(=O)N3CCOCC3)/C2=N\O)C1(C)C (stereo unspecified) | > 200 µM | 195 µM | – |
| Brc1ccc2noc(-c3ccccc3)c2c1 | > 7.24 µM | > 7.24 µM | – |
| Cc1nc2c(nc1C)C(=O)C(Br)=CC2=O | – | – | inactive |
| CCCCCCCCCCCCCCCCCCN(C)C | > 200 µM | 97.7 µM | – |
| CC1(C)C(=O)/C=C\C(=O)C(C)(C)C2=CC=C(O2)C(C)(C)C(=O)/C=C\C(=O)C(C)(C)C2=CC=C1O2 | – | – | inactive |

| SMILES | EC50 | IC50 | outcome |
| --- | --- | --- | --- |
| O=c1c2nn3c(=O)n(-c4ccc(Cl)cc4)c(=O)c3nn2c(=O)n1-c1ccc(Cl)cc1 | > 200 µM | > 200 µM | – |
| CCCCCCCCCCN(CCCCCCCCCC)CC(=O)Nc1ccc(S(=O)(=O)c2ccc(NC(=O)CN(CCCCCCCCCC)CCCCCCCCCC)cc2)cc1 | > 50.1 µM | 3.02 µM | – |
| CSc1c(C#N)c2n(c3ccccc13)c1ccccc1[n+]2C | > 100 µM | 6.76 µM | – |
| O=C(O)C(CSC(c1ccccc1)(c1ccccc1)c1ccccc1)N=Cc1cccs1 (stereo unspecified) | > 200 µM | 2.04 µM | – |
| CC1(O)Oc2ccc3ccccc3c2C=C1C(N)=O (stereo unspecified) | > 200 µM | 182 µM | – |
| COc1cccc(CCCCCCCC(=O)O)c1 | > 200 µM | > 200 µM | – |
| COc1ccc(NC(=O)Oc2ccc3c(C)cc(=O)oc3c2)c(OC)c1 (tested in a mixture with another compound) | > 100 µM | 46.8 µM | – |
| O=c1[nH]c2ccccc2c(O)c1N=Nc1ccc(S(=O)(=O)O)cc1 | > 200 µM | > 200 µM | – |
| CCOC(=O)c1nc2ccc(C(F)(F)F)cc2nc1Oc1ccc(C#N)cc1 | > 200 µM | > 200 µM | – |
| Cc1nc2c(=O)n(C)c(=O)n(C)c2o1 | > 200 µM | > 200 µM | – |
| CCCOc1cnc([C@H]2CCC3[C@@H]4CC=C5C[C@@H](OC(C)=O)CC[C@]5(C)C4CC[C@@]32C)s1 (stereo partly specified) | > 55 µM | > 55 µM | – |
| C=C(C)CC1=C(C(=S)NCCO[Si](C)(C)C(C)(C)C)C(OCC)(OCC)C1=O | > 200 µM | 11.5 µM | – |
| CN(C(=O)c1cc2c(s1)sc1c(=O)n(C)c3ccccc3c12)c1ccccc1 | > 200 µM | 2.95 µM | – |
| CCc1ccccc1N1C(=O)C(=O)C(c2nc3ccccc3s2)C(=O)C1=O | > 178 µM | 93.3 µM | – |
| O=c1[nH]nc(-c2ccccc2)n1/N=C/c1ccc([N+](=O)[O-])cc1 | > 200 µM | > 200 µM | – |
| NNC(=O)CC(=O)N(C(=O)c1ccccc1)c1ccc(Cl)cc1 | > 200 µM | > 200 µM | – |
| O=[N+]([O-])c1ccc(S(=O)(=O)NCCSSCCNS(=O)(=O)c2ccc([N+](=O)[O-])cc2)cc1 | > 200 µM | 10.5 µM | – |
| COCCN1C2=CCCCC2=Nc2c1nc(N)[nH]c2=O | – | – | inactive |
| O=C(OC1C#CCSCC#C/C=C\1)c1cnc2ccccc2n1 (stereo unspecified) | > 200 µM | 33.1 µM | – |
| C=C1CC2C(=O)N(c3ccccc3)C(=O)C2CC1n1[nH]c(=O)n(Cc2ccccc2)c1=O (stereo unspecified) | > 219 µM | > 219 µM | – |
| COc1cnc2cc3c4c(cccc4c2c1)NC3=O | > 100 µM | 3.98 µM | – |

| SMILES | EC50 | IC50 | outcome |
| --- | --- | --- | --- |
| COc1cc2oc(=O)cc(C)c2cc1O | > 871 µM | 138 µM | – |
| CN(/N=C/c1cccc2cccnc12)c1ccc(Cl)cc1[N+](=O)[O-] | > 200 µM | 178 µM | – |
| CCOC(=O)CCc1cn2cc(Br)nc(OC)c2n1 | > 200 µM | 25.1 µM | – |
| c1ccc2c(c1)CCc1c-2n(CCN2CCOCC2)c2ccccc12 | > 200 µM | > 200 µM | – |
| c1ccc(CN[C@]23C4C5CC6C7C5C2C7[C@@](NCc2ccccc2)(C64)N3Cc2ccccc2)cc1 (stereo partly specified) | > 200 µM | 105 µM | – |
| COc1cccc(NC(=S)/C(=C(/[O-])c2ccc(C)cc2)[n+]2ccccc2)c1 | > 200 µM | > 200 µM | – |
| O=C(Nc1ccccc1)c1nn(-c2cc(S(=O)(=O)O)c([N+](=O)[O-])cc2Cl)[n+](-c2cc(S(=O)(=O)[O-])c([N+](=O)[O-])cc2Cl)n1 | 64.6 µM | > 100 µM | – |
| Cc1ccc(NC(=O)/C(=N/N(C)C)C(C2OC(=O)c3ccccc32)[N+](=O)[O-])cc1 (stereo unspecified) | > 47.9 µM | > 47.9 µM | – |
| CC(O)C(NC(=O)c1ccccc1)C(=O)N(Cc1ccccc1)Cc1ccccc1 (stereo unspecified) | > 17.8 µM | > 17.8 µM | – |
| COc1ccc(C2N(c3ccc(F)c([N+](=O)[O-])c3)C(=O)N3C(c4ccc(OC)cc4)N(c4ccc(F)c([N+](=O)[O-])c4)C(=O)N23)cc1 (stereo unspecified) | > 200 µM | 33.9 µM | – |
| CCC[CH2][Sn]([CH2]CCC)([O]C(=O)C(OC(C)=O)c1ccccc1)[O]C(=O)C(OC(C)=O)c1ccccc1 (stereo unspecified) | > 11.5 µM | 0.191 µM | – |
| COc1cccc(C(=O)CC(c2ccccc2)C(C)(C)[N+](=O)[O-])c1 (stereo unspecified) | > 200 µM | 95.5 µM | – |
| COc1ccc(/C=C(\C#N)c2nc3ccccc3c(=O)[nH]2)cc1 | – | – | active |
| [O-]c1c2cc(-[n+]3c(-c4ccccc4)cc(-c4ccccc4)cc3-c3ccccc3)cc1CO[C@@H](c1ccccc1)[C@H](c1ccccc1)OCCOCCO[C@@H](c1ccccc1)[C@H](c1ccccc1)OC2 | > 2 µM | 0.105 µM | – |
| CCc1cc(Cc2ccc(C)c(NC(=O)C(=O)C3C(=O)NC(=O)NC3=O)c2CC)cc(C)c1NC(=O)C(=O)C1C(=O)NC(=O)NC1=O | > 77.6 µM | > 77.6 µM | – |
| CC(C)c1c(O[Si](C(C)C)(C(C)C)C(C)C)c2c3c(ccc4c3c1OC4(C)C)C(C)CC2 (stereo unspecified) | > 200 µM | > 200 µM | – |
| CCCCCCCCCCCCCCCC(O)S(=O)(=O)O (stereo unspecified) | > 100 µM | 15.1 µM | – |
| CC(OC(C)(C)C)[C@H](NC(=O)OCC(Cl)(Cl)Cl)C(=O)O (stereo partly specified) | > 200 µM | > 200 µM | – |
| Nc1ccc(/C=C/c2ccc3ncccc3c2)cc1 | 0.0631 µM | > 200 µM | – |
| O=C(NC(=O)C(Cc1ccccc1)c1ccccc1)C(Cc1ccccc1)c1ccccc1 (stereo unspecified) | > 12 µM | > 12 µM | – |
| CC(NC(=O)OC(C)(C)C)C(=O)NC(Cc1ccccc1)C(=O)NCC(=O)Oc1c(Cl)c(Cl)c(Cl)c(Cl)c1Cl (stereo unspecified) | > 200 µM | 4.27 µM | – |

| SMILES | EC50 | IC50 | outcome |
| --- | --- | --- | --- |
| COc1cc(/C=C2\CC(C)C/C(=C\c3ccc(O)c(OC)c3)C2=O)ccc1O (stereo unspecified) | > 200 µM | 3.39 µM | – |
| CCOC(=O)C1C(c2ccccc2)=C(c2ccccc2)C(c2ccccc2)=C1c1ccccc1 | – | – | inactive |
| COC(=O)c1cc(C(CCl)c2cc(C(=O)OC)c(O)cc2C)c(C)cc1O | > 200 µM | 112 µM | – |
| COC1=CC(=O)C(=O)c2c(C)ccnc21 | – | – | inactive |
| O=[N+]([O-])C1C2C=CC(C2)[C@H]1c1ccccc1Cl (stereo partly specified) | – | – | inactive |
| COC1/C=C/OC2(C)Oc3c(C)c(O)c4c(O)c(c(/C=N\N(C)C56CC7CC(CC(C7)C5)C6)c(O)c4c3C2=O)NC(=O)C(C)=C/C=C/C(C)C(O)C(C)C(O)C(C)C(OC(C)=O)C1C (stereo unspecified) | > 200 µM | 7.41 µM | – |
| Cc1ccc(N=NC2S/C(=C(\C#N)c3nc4ccccc4[nH]3)N(c3ccccc3)C2=O)cc1 (stereo unspecified) | > 2.24 µM | > 2.24 µM | – |
| O=c1[nH][nH]c(=O)n1CCCCCCn1c(=O)[nH][nH]c1=O | > 200 µM | > 200 µM | – |
| CN(C)CCC(=O)c1ccc(Cl)cc1 | > 107 µM | 27.5 µM | – |
| Cc1cc(O)c2c(c1)C(C1c3cccc(O)c3C(=O)c3c(O)cc(C)cc31)c1cccc(O)c1C2=O (stereo unspecified) | > 2 µM | 0.0912 µM | – |
| COC1=C(OC)C(=O)c2cc(C)c(=O)c(C)cc2C1=O | > 13.2 µM | 3.98 µM | – |
| O=C1/C(=C\c2cccc(Oc3ccccc3)c2)SC(c2ccccc2)N1c1cc(Cl)ccc1Cl (stereo unspecified) | > 200 µM | 9.33 µM | – |
| C[N+](C)([O-])C12CC3CC(CC(C3)C1)C2 | > 200 µM | > 200 µM | – |
| OCCN(CCO)CN(CO)c1nc(N(CO)CN(CCO)CCO)nc(N(CO)CN(CCO)CCO)n1 | > 437 µM | > 437 µM | – |
| Nc1cc(C(=O)NC2C3CC4CC(C3)CC2C4)[nH]c(=S)n1 (stereo unspecified) | > 813 µM | > 813 µM | – |
| O=C(O)C1CC1 | – | – | inactive |
| Clc1ccc(CNNCc2cccc(Cl)c2)cc1 | > 200 µM | 102 µM | – |
| O=C1C=C(N2CCOCC2)c2cc(N3CCOCC3)ncc2C1=O | – | – | inactive |
